These results are taken from article PMC11588247, “Antimicrobial and antioxidant activities of peptide derived from turmeric plant (Curcuma longa L)” (PLOS ONE, 2024).

Ends that are not written are not given here.

Test [1] in a line: FRAP (ferric ion-reducing antioxidant power) assay. The following applies: 10 μL sample + 190 μL FRAP reagent (acetate pH 3.6, TPTZ, FeCl3), 30 min dark, absorbance 593 nm, ascorbic acid standard; hydrolysate at 100 μg/mL. The method, then:
The ferric ion-reducing antioxidant power assay was analyzed according to the method by Rumpf et al. with minor modifications. Briefly, the FRAP reagent was prepared from 300 mM sodium acetate (pH 3.6) and 10 mM TPTZ (2,4,6-tris (2-pyridyl)-s-triazine) in 40 mM HCl and 20 mM ferric chloride at the ratio of 10:1:1, respectively. Then, a 10 μL aliquot of the sample or standard was mixed with 190 μL of the FRAP reagent before incubating in the dark for 30 minutes. The absorbance was measured at 593 nm using a microplate reader (Synergy H1 Hybrid Multi-Mode Reader, Biotek, Winusky, VT, USA). Ascorbic acid (Sigma-Aldrich, Singapore) was used as the standard. Results were expressed as micrograms of ascorbic acid equivalent per gram (μg AAE g^−1).

The nature of test [2]: ABTS radical scavenging assay. The following applies: 10 μL sample + 190 μL ABTS solution, 5 min dark, absorbance 750 nm, ascorbic acid standard; hydrolysate at 100 μg/mL. On the procedure:
Radical scavenging antioxidant activity was determined according to the ABTS radical scavenging activity following the method described by Re et al. with slight modifications. Briefly, the solution of ABTS radical was prepared from the reaction between 7 mM ABTS (2,2-azino-bis (3-ethylbenzothiazoline-6-sulphonic acid) diammonium salt) and 2.45 mM ammonium persulphate. The resulting ABTS solution was diluted with distilled water to achieve an optical density of 0.7 at 750 nm. Then, a sample or standard of 10 μL was mixed with 190 μL of ABTS solution and incubated for 5 minutes in the dark. The absorbance was measured at 750 nm by a microplate reader (Synergy H1 Hybrid Multi-Mode Reader, Biotek, Winusky, VT, USA). Ascorbic acid was used as the standard.

Test [3] can be described thus: DPPH radical scavenging assay. The following applies: 10 μL sample + 190 μL 0.1 mM DPPH, 30 min dark, room temperature, absorbance 517 nm, ascorbic acid standard; hydrolysate at 100 μg/mL. On the procedure:
The DPPH radical scavenging activity of the sample was evaluated following the protocol by Muangrod et al. with slight modifications. Briefly, 190 μL of 0.1 mM DPPH was mixed with 10 μL of the sample or standard ascorbic acid in each well and incubated at room temperature in the dark for 30 minutes. The absorbance of the mixture was measured at 517 nm using a microplate reader (Synergy H1 Hybrid Multi-Mode Reader, Biotek, Winusky, VT, USA). The percentage inhibition of DPPH radical scavenging activity was calculated using the following equation: %DPPHinhibition=[(Acontrol−Asample)/Acontrol]×100 (2) where A control means the absorbance of the control that contained all reagents except the test samples, and A sample means the absorbance of the mixture (sample and 0.1 mM DPPH). Ascorbic acid was used as the standard. Results were expressed as μg ascorbic acid equivalent (μg AAE g^−1).

Test [4] relates to Staphylococcus epidermidis (ATCC 12228). Description: microbe, parasite or virus in culture. It is filed as cell-based. The following applies: sample 100 μg/mL, 6 h at 37°C, MTT OD570 vs inoculated broth control. The source says: (§1) Pathogenic microorganism composes of Escherichia coli (ATCC 25922), Staphylococcus aureus (ATCC 25923), Staphylococcus epidermidis (ATCC 12228), Bacillus subtilis (ATCC 6633), Bacillus cereus (ATCC 11778), Pseudomonas aeruginosa (ATCC 27853), Vibrio parahaemolyticus (ATCC 17802), Klebsiella pneumoniae (ATCC 27736), Acinetobacter baumannii (ATCC 19606), Enterobacter cloacae (ATCC 13047), Salmonella enterica (ATCC 13311), and Salmonella Typhi (ATCC 22842) were used in the experiments.
(§2) Bacteria were initially cultured on Tryptic Soy Agar (TSA) plates at 37°C for 12–16 hours. A single colony was transferred to Tryptic Soy Broth (TSB) and incubated at 37°C with gently agitation at 100 rpm, for an additional 12–16 hours. The bacterial concentration was adjusted to an optical density at 600 nm (OD600) of 0.05, corresponding to 4 x 10^7 CFU/mL, before being added to a 96-well plate (50 μL per well). Subsequently, 50 μL of protein hydrolysate or peptide was inoculated into each well at a final concentration of 100 μg/mL, and the mixture was incubated at 37°C with continuous shaking at 100 rpm for 6 hours. Wells with inoculated broth alone served as a negative control, while wells containing Ampicillin (100 μg/mL) served as a positive control. Following incubation, 25 μL of a 100 μg/mL MTT (3-(4,5-dimethylthiazol-2-yl)-2,5-diphenyltetrazolium bromide) solution was added to each well, thoroughly mixed, and incubated at room temperature for 4 hours. The optical density at 570 nm (OD570nm) was subsequently measured using a microplate reader (Synergy H1 Hybrid Multi-Mode Reader, Biotek, Winusky, VT, USA). The percentage of inhibition was calculated using the provided equation: [(OD570control–OD570test)/OD570control]×100 (1)

The test system of test [5] is Staphylococcus aureus (ATCC 25923). The test can be described thus: microbe, parasite or virus in culture. The following applies: sample 100 μg/mL, 6 h at 37°C, MTT OD570 vs inoculated broth control. The test is classed as cell-based.
Description: as §1, §2

The test system of test [6] is Salmonella enterica (ATCC 13311). Description: microbe, parasite or virus in culture. The test is classed as cell-based. The following applies: sample 100 μg/mL, 6 h at 37°C, MTT OD570 vs inoculated broth control.
Description: as §1, §2

Test [7] concerns Acinetobacter baumannii (ATCC 19606). The test can be described thus: microbe, parasite or virus in culture. It is filed as cell-based. The following applies: sample 100 μg/mL, 6 h at 37°C, MTT OD570 vs inoculated broth control.
Description: as §1, §2

As to ARLLLLKP [Cur-8], the “FRAP (antioxidant activity ± SD)” value in test [1] was found to be 1.05±0.01 μg AAE g^−1. Moreover, the “ABTS radical-scavenging activity (antioxidant activity ± SD)” value in test [2] turned out to be 0.13±0.00 μg AAE g^−1. Further, the “DPPH radical scavenging activity (antioxidant activity ± SD)” value in test [3] was determined as 0.58±0.00 μg AAE g^−1.

As for HAFRDAVTPLE [Cur-12], in test [1], the “FRAP (antioxidant activity ± SD)” value was determined as 1.04±0.01 μg AAE g^−1. Moreover, the “ABTS radical-scavenging activity (antioxidant activity ± SD)” value in test [2] turned out to be 0.02±0.00 μg AAE g^−1. For the same sequence, the “DPPH radical scavenging activity (antioxidant activity ± SD)” value in test [3] came out at 0.60±0.06 μg AAE g^−1.

KLHLLILI [Cur-1]: the “FRAP (antioxidant activity ± SD)” value in test [1] is 1.05±0.01 μg AAE g^−1. The “ABTS radical-scavenging activity (antioxidant activity ± SD)” value in test [2] came to 0.22±0.00 μg AAE g^−1. Further, the “Inhibitory Percentage (Means±SD), Staphylococcus epidermidis ATCC 12228” value in test [4] (listed as Cur-25) was “inhibited growth”. Besides, the “Inhibitory Percentage (Means±SD), Staphylococcus aureus ATCC 25923” value in test [5] (listed as Cur-25) is “inhibited growth”. Also, the “Inhibitory Percentage (Means±SD), Salmonella enterica ATCC 13311” value in test [6] (listed as Cur-25) was “inhibited growth”. The “Inhibitory Percentage (Means±SD), Acinetobacter baumannii ATCC 19606” value in test [7] (listed as Cur-25) is “inhibited growth”. The “DPPH radical scavenging activity (antioxidant activity ± SD)” value in test [3] was 0.63±0.04 μg AAE g^−1.

LKKPVILL [Cur-11]: in test [1], the “FRAP (antioxidant activity ± SD)” value worked out at 1.05±0.01 μg AAE g^−1. Also, the “ABTS radical-scavenging activity (antioxidant activity ± SD)” value in test [2] is given as 0.17±0.01 μg AAE g^−1. The “DPPH radical scavenging activity (antioxidant activity ± SD)” value in test [3] was determined as 0.68±0.02 μg AAE g^−1.

Consider LKKTLLLVNKADLLP [Cur-5], for which the “FRAP (antioxidant activity ± SD)” value in test [1] is on record as 1.04±0.00 μg AAE g^−1. Besides, the “ABTS radical-scavenging activity (antioxidant activity ± SD)” value in test [2] is recorded as 0.12±0.00 μg AAE g^−1. Besides, the “DPPH radical scavenging activity (antioxidant activity ± SD)” value in test [3] is 0.62±0.01 μg AAE g^−1.

In the case of PKVKILIL [Cur-4], in test [1], the “FRAP (antioxidant activity ± SD)” value was 1.08±0.09 μg AAE g^−1. Also, the “ABTS radical-scavenging activity (antioxidant activity ± SD)” value in test [2] is 0.15±0.00 μg AAE g^−1. Further, the “DPPH radical scavenging activity (antioxidant activity ± SD)” value in test [3] is given as 0.77±0.01 μg AAE g^−1.

On to PLKLLLPL [Cur-7], for which the “FRAP (antioxidant activity ± SD)” value in test [1] is on record as 1.04±0.00 μg AAE g^−1. Moreover, the “ABTS radical-scavenging activity (antioxidant activity ± SD)” value in test [2] was 0.15±0.00 μg AAE g^−1. For the same sequence, the “DPPH radical scavenging activity (antioxidant activity ± SD)” value in test [3] is given as 0.74±0.02 μg AAE g^−1.

On to PLLLKLIV [Cur-2], for which the “FRAP (antioxidant activity ± SD)” value in test [1] is reported as 1.05±0.01 μg AAE g^−1. For the same sequence, the “ABTS radical-scavenging activity (antioxidant activity ± SD)” value in test [2] was determined as 0.13±0.00 μg AAE g^−1. In addition, the “Inhibitory Percentage (Means±SD), Staphylococcus epidermidis ATCC 12228” value in test [4] (listed as Cur-14) is “inhibited growth”. Further, the “Inhibitory Percentage (Means±SD), Staphylococcus aureus ATCC 25923” value in test [5] (listed as Cur-14) was “inhibited growth”. Also, the “Inhibitory Percentage (Means±SD), Salmonella enterica ATCC 13311” value in test [6] (listed as Cur-14) is given as “inhibited growth”. Further, in test [7] (listed as Cur-14), the “Inhibitory Percentage (Means±SD), Acinetobacter baumannii ATCC 19606” value is listed as “inhibited growth”. Also, the “DPPH radical scavenging activity (antioxidant activity ± SD)” value in test [3] was determined as 0.75±0.03 μg AAE g^−1.

For the sequence QIILLLLKP [Cur-9], the “FRAP (antioxidant activity ± SD)” value in test [1] is recorded as 1.04±0.02 μg AAE g^−1. In test [2], the “ABTS radical-scavenging activity (antioxidant activity ± SD)” value is 0.07±0.00 μg AAE g^−1. Further, the “DPPH radical scavenging activity (antioxidant activity ± SD)” value in test [3] came to 0.70±0.00 μg AAE g^−1.

For VHVLLLIL [Cur-10], the “FRAP (antioxidant activity ± SD)” value in test [1] was determined as 1.04±0.00 μg AAE g^−1. For the same sequence, the “ABTS radical-scavenging activity (antioxidant activity ± SD)” value in test [2] is given as 0.30±0.01 μg AAE g^−1. Further, the “DPPH radical scavenging activity (antioxidant activity ± SD)” value in test [3] worked out at 0.75±0.04 μg AAE g^−1.

For the sequence VKLKIPLLIL [Cur-3], the “FRAP (antioxidant activity ± SD)” value in test [1] turned out to be 1.04±0.00 μg AAE g^−1. Moreover, in test [2], the “ABTS radical-scavenging activity (antioxidant activity ± SD)” value was determined as 0.08±0.00 μg AAE g^−1. Moreover, in test [3], the “DPPH radical scavenging activity (antioxidant activity ± SD)” value stood at 0.67±0.00 μg AAE g^−1.

Turning to VLKKLLPLL [Cur-6], the “FRAP (antioxidant activity ± SD)” value in test [1] came to 1.05±0.00 μg AAE g^−1. In addition, the “ABTS radical-scavenging activity (antioxidant activity ± SD)” value in test [2] is 0.09±0.01 μg AAE g^−1. Also, in test [3], the “DPPH radical scavenging activity (antioxidant activity ± SD)” value amounted to 0.67±0.06 μg AAE g^−1.
